Data published in patent US11485751B2, “Apramycin derivatives” (WAYNE STATE UNIVERSITY, priority 2017, dated 2022).
Converted amounts (≈) assume the structure as drawn.

Columns and labels:
[1] = system: clinical isolates carrying APH(3′)-II; assay: MIC broth microdilution, APH(3′)-II; format: cell-based; conditions: clinical isolates, IMM Univ. Zurich; APH(3′)-II; read-out: MIC APH(3′)-II
From the text: (§1) Minimal inhibitory concentrations (MIC) have been determined by broth microdilution assays (CLSI. Methods for Dilution Antimicrobial Susceptibility Tests for Bacteria That Grow Aerobically; Approved Standard—Tenth Edition. CLSI document M07-A10. Wayne, Pa.: Clinical and Laboratory Standards Institute; 2015.).
(§2) Minimal inhibitory concentrations (MICs, […]) against clinical isolates from Institute of Medical Microbiology, Univ. Zurich, and the IC50 values for bacterial, human mitochondrial and human cytosolic ribosomes are indicated.

[2] = system: human cytosolic ribosomes; assay: in-vitro translation assay, human cytosolic ribosomes; format: biochemical
In short: (§3)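 Reported values are IC50s for inhibition of in-vitro translation. For the mitochondrial target, human chimeric ribosomes were used. For the cytosolic target, rabbit reticulocyte ribosomes were used.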

[3] = system: AG225, Acinetobacter baumannii pittii; assay: MIC reference strain AG225; format: cell-based; conditions: Acinetobacter baumannii, reference strain; read-out: MIC AG225 A. baumannii
In short: (§4)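 The method determines minimal inhibitory concentrations using the standard CLSI microdilution procedure in liquid medium.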

AG003 E. coli AAC(3)-II = assay: Antibacterial activity, clinical isolate AG003; format: cell-based
In short: (§5)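 Susceptibility was tested per CLSI aerobic dilution protocol using microbroth format, with the MIC taken as the end point.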

bacterial ribosomes = assay: in-vitro translation assay, bacterial ribosomes; format: biochemical
In short: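 Cell-free translation; IC50 read-out. Mito = human chimeric ribosomes; cytosolic = rabbit reticulocyte ribosomes; bacterial ribosomes run in the same assay format.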

[4] = system: AG290, Enterobacter cloacae; assay: MIC reference strain AG290; format: cell-based; conditions: Enterobacter cloacae; reference strain; read-out: MIC AG290 E. cloacae
In short: as §4

[5] = system: AG039 MRSA AAC(6′)-I ANT(4′)-I; assay: Antibacterial activity, clinical isolate AG039; format: cell-based
In short: as §5

[6] = system: Engineered E. coli AG103 armA; assay: Activity against G1405-methylated 16S-rRNA, E. coli AG103 armA; format: cell-based
In short: (§6)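 Strains are tested by broth microdilution under the CLSI M07-A10 procedure. The lowest inhibitory concentration is recorded as the MIC.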

[7] = system: AG212, Escherichia coli ATCC25922; assay: MIC reference strain AG212; format: cell-based; conditions: Escherichia coli; reference strain ATCC25922; read-out: MIC AG212 E. coli
In short: as §4

AG163 E. coli APH(3′)-I = assay: Antibacterial activity, clinical isolate AG163; format: cell-based
From the text: as §1
Table 4 and 5 show the antibacterial activity of the compounds of the invention against bacterial reference strains (table 4) and against representative clinical isolates (table 5).

[8] = system: Engineered E. coli pH427 rmtF; assay: Activity against G1405-methylated 16S-rRNA, E. coli pH427 rmtF; format: cell-based
In short: as §6

[9] = system: Engineered E. coli pH426 rmtC; assay: Activity against G1405-methylated 16S-rRNA, E. coli pH426 rmtC; format: cell-based
In short: as §6

AG031 P. aer. APH(3′)-II = assay: Antibacterial activity, clinical isolate AG031; format: cell-based; parameters: unit not given here
In short: as §5

AG001 E. coli WT = assay: Antibacterial activity, clinical isolate AG001; format: cell-based; parameters: unit not given here
In short: as §5

[10] = system: APH(3′, 5″) resistance determinant; assay: Susceptibility to the APH(3′, 5″) resistance determinant; format: cell-based
From the text: as §1
The introduction of a formamido group results in compounds that display increased selectivity for the bacterial ribosome over the mitochondrial (wild type and A1555G mutant) ribosomes, predictive of reduced ototoxicity.

[11] = system: clinical isolates carrying APH(3′)-III; assay: MIC broth microdilution, APH(3′)-III; format: cell-based; conditions: IMM Univ. Zurich
From the text: as §1, §2

[12] = system: AG033 P. aer. APH(3′)-II AAC(6′)-I; assay: Antibacterial activity, clinical isolate AG033; format: cell-based; parameters: unit not given here
In short: as §5

[13] = system: Engineered E. coli pH430 WT; assay: Activity, engineered E. coli pH430 WT; format: cell-based; conditions: wild type
In short: as §6

[14] = system: AG220, Pseudomonas aeruginosa ATCC27853; assay: MIC reference strain AG220; format: cell-based; conditions: Pseudomonas aeruginosa, ATCC27853, reference strain ATCC27853; read-out: MIC AG220 P. aeruginosa
In short: as §4

[15] = system: Engineered E. coli pH424 armA; assay: Activity against G1405-methylated 16S-rRNA, E. coli pH424 armA; format: cell-based
In short: as §6

[16] = system: clinical isolates carrying AAC(3)-IV; assay: MIC broth microdilution, AAC(3)-IV; format: cell-based; conditions: for MIC: clinical isolates, IMM Univ. Zurich, AAC(3)-IV, read-out: MIC AAC(3)-IV
In short: (§7)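 Clinical isolates supplied by the Zurich Institute of Medical Microbiology were tested for MIC (μg/ml) using CLSI M07-A10 broth microdilution.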

[17] = system: clinical isolates carrying APH(3′)-I; assay: MIC broth microdilution, APH(3′)-I; format: cell-based; conditions: IMM Univ. Zurich
From the text: as §1, §2

[18] = system: AG042 MRSA AAC(6′)-I ANT(4′)-I APH(2′); assay: Antibacterial activity, clinical isolate AG042; format: cell-based; parameters: unit not given here
In short: as §5

[19] = system: clinical isolates carrying APH(3′)-VI; assay: MIC broth microdilution, APH(3′)-VI; format: cell-based; conditions: IMM Univ. Zurich
From the text: as §1, §2

AG055 E. coli WT = assay: Antibacterial activity, clinical isolate AG055; format: cell-based; parameters: unit not given here
In short: as §5

AG173 E. coli AAC(3)-IV = assay: Antibacterial activity, clinical isolate AG173; format: cell-based
In short: as §5

AG032 P. aer. APH(3′)-II = assay: Antibacterial activity, clinical isolate AG032; format: cell-based; parameters: unit not given here
In short: as §5

[20] = system: Engineered E. coli pH425 rmtB; assay: Activity against G1405-methylated 16S-rRNA, E. coli pH425 rmtB; format: cell-based
In short: as §6

[21] = system: human mitochondrial ribosomes; assay: in-vitro translation assay, human mitochondrial (human chimeric) ribosomes; format: biochemical
In short: as §3

AG038 MRSA = assay: Antibacterial activity, clinical isolate AG038; format: cell-based; parameters: unit not given here
In short: as §5

[22] = system: AG215, Klebsiella pneumonia; assay: MIC reference strain AG215; format: cell-based; conditions: Klebsiella pneumoniae, reference strain; read-out: MIC AG215 K. pneumonia
In short: as §4

ATCC19977 M. abcessus = assay: MIC reference strain ATCC19977; format: cell-based; conditions: read-out: MIC ATCC19977 M. abcessus
In short: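 Compounds are serially diluted in liquid medium in microplates, bacteria are added, and the lowest concentration preventing growth is recorded as the MIC (CLSI procedure).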

eukaryotic ribosomes = assay: in-vitro translation assays, bacterial versus eukaryotic ribosomes; format: biochemical
From the text: IC50 values for bacterial, human chimeric, and rabbit reticulocyte ribosomes have been determined by in-vitro translation assays as described previously (Proc. Nat. Ac. Sci USA 2012, 109(27):10984-10989).

isolates carrying apmA = assay: MIC broth microdilution, apmA; format: cell-based; conditions: apmA resistance gene
In short: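 Clinical isolates carrying apmA, from the University of Zurich Institute of Medical Microbiology, were tested by broth microdilution following CLSI M07-A10; values are MICs in μg/ml.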

WT clinical isolates = assay: MIC broth microdilution, WT; format: cell-based; conditions: read-out: MIC WT, clinical isolates, IMM Univ. Zurich; wild type
In short: as §7

Structure (SMILES)	IC50 [2]	MIC [3]	Antibacterial activity AG003 E. coli AAC(3)-II (AG003 E. coli AAC(3)-II)	IC50 (bacterial ribosomes)	MIC [4]	Antibacterial activity AG039 MRSA AAC(6′)-I ANT(4′)-I [5]	Activity E. coli AG103 armA [6]	MIC [7]	Antibacterial activity AG163 E. coli APH(3′)-I (AG163 E. coli APH(3′)-I)	Activity E. coli pH427 rmtF [8]	Activity E. coli pH426 rmtC [9]	Antibacterial activity AG031 P. aer. APH(3′)-II (AG031 P. aer. APH(3′)-II)	Antibacterial activity AG001 E. coli WT (AG001 E. coli WT)	Antibacterial activity AG033 P. aer. APH(3′)-II AAC(6′)-I [12]	Activity E. coli pH430 WT [13]	MIC [14]	Activity E. coli pH424 armA [15]	MIC [16]	Antibacterial activity AG042 MRSA AAC(6′)-I ANT(4′)-I APH(2′) [18]	Antibacterial activity AG055 E. coli WT (AG055 E. coli WT)	further results
CNC1C(OC2OC(CO)C(N)C(O)C2O)OC2CC(N)C(OC3C(N)CC(N)C(O)C3OC3OC(CO)C(OC4OC(CN)C(O)C(O)C4N)C3O)OC2C1O (stereo not drawn) [DC138, 5-O-β-(Paromobiosyl) apramycin]	18 µM	4 µg/mL	4	0.1 µM	2 µg/mL	2-4	<0.125	2 µg/mL	8	1	1	32-64	4	64	2	16 µg/mL	1	> 32 µg/mL	2	8	MIC [1]: 2 µg/mL (≈ 2.4 µM); susceptibility to the APH(3′, 5″) resistance determinant [10]: susceptible; MIC [11]: 1 to 2 µg/mL (≈ 1.2 to 2.4 µM); activity against the IMM clinical isolates carrying the gene for AAC(3)-IV [16]: excellent antiribosomal and antibacterial activity; MIC [17]: 16 µg/mL (≈ 19.2 µM); MIC [19]: 4 µg/mL (≈ 4.81 µM); Antibacterial activity AG173 E. coli AAC(3)-IV (AG173 E. coli AAC(3)-IV): 1-2; Antibacterial activity AG032 P. aer. APH(3′)-II (AG032 P. aer. APH(3′)-II): 64; Activity E. coli pH425 rmtB [20]: 1; IC50 [21]: 2.2 µM; Antibacterial activity AG038 MRSA (AG038 MRSA): 2-4; MIC [22]: 1 µg/mL
CNC1C(OC2OC(CO)C(N)C(O)C2O)OC2CC(N)C(OC3C(N)CC(N)C(OCCO)C3O)OC2C1O (centres unmarked) [DC167, 6-O-(2-Hydroxyethyl)-apramycin]	382 µM	16 µg/mL	16	0.18 µM	8 µg/mL	16-32	4	16 µg/mL	8-16	16	16	32-64	16	64-128	8	32 µg/mL	8	> 32 µg/mL	64	16	MIC (ATCC19977 M. abcessus): 2 µg/mL (≈ 3.43 µM); target specificity for bacterial versus human rRNA (eukaryotic ribosomes): increased target specificity; MIC (isolates carrying apmA): > 64 µg/mL; MIC (WT clinical isolates): 8 µg/mL (≈ 13.7 µM); Antibacterial activity AG173 E. coli AAC(3)-IV (AG173 E. coli AAC(3)-IV): >128; Antibacterial activity AG032 P. aer. APH(3′)-II (AG032 P. aer. APH(3′)-II): 32-64; Activity E. coli pH425 rmtB [20]: 16; IC50 [21]: 379 µM; Antibacterial activity AG038 MRSA (AG038 MRSA): 16-32; MIC [22]: 4 µg/mL
